Results on two compounds are retold here after patent publication US20020077491A1, “Methods for forming combinatorial libraries combining amide bond formation with epoxide opening” (priority 2000, published 2002).

By IC50 is commonly meant the concentration that gives 50% inhibition. A high value points to a need for much substance.

Structures are written as SMILES. Where “and” joins values, the source holds several entries; their conditions need not be identical. Equal values may be shown once.

Test [1] addresses T1, bovine (B. taurus) DHFR enzyme (Bos taurus, UniProt P00376).
T1 sequence (P00376 1-187): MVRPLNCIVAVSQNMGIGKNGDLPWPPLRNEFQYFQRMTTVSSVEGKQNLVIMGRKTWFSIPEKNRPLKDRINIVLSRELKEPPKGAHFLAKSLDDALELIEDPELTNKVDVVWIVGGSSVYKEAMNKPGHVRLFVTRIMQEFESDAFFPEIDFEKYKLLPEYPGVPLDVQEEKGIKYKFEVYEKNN
Briefly: ALIS affinity selection with bovine DHFR. Type of test: binding. To be noted: FIG. 9. From the text: (§1) Utilizing the ALIS techniques described above, the affinity of ligands for DHFRec was compared to the affinity of the same ligands for the bovine (B. taurus) DHFR enzyme.

In another test the test system is E. coli BL21(DE3). Briefly: Determination of antibacterial activity (inhibition of bacterial growth, absorbance at 600 nm). Type of test: cell-based. To be noted: Escherichia coli, 24 hours at 37° C. As for the experimental part:
Protocols for the measurement of IC50 for the evaluation of antibacterial activity followed standard methods [Antibiotics in Laboratory Medicine, V. Lorian, Ed. Fourth edition, 1996. Williams and Wilkins; Baltimore, Md.]. Briefly, purified (S)-29, antibiotic control, or vehicle (DMSO) was subjected to serial dilution into Luria-Bertani growth medium in a manner that placed 0.1 mL aliquots of medium-plus-vehicle or medium-plus-antibiotic into each well of a sterile polystyrene 96-well plate. To aid compound dissolution, medium-analyte mixtures were warmed to 37° C. for eight hours with agitation. Bacterial cells, [E. coli: hsdS gal (λcIts857 ind 1 Sam7 nin5 lacUV5-T7 gene 1); BL21(DE3)] were grown in to mid-log phase at 37° C. The culture was then diluted 1:10^5 into prewarmed growth medium. Aliquots of diluted bacterial culture (0.1 mL) were then combined with the pre-aliquotted medium-analyte mixtures to yield 0.2 mL inoculated cultures containing no more than 2.5% DMSO. The plated inoculate series were then grown for twenty-four hours at 37° C. with orbital shaking. Bacterial cell growth was quantitated by measuring absorbance at 600 nm. IC50 for the inhibition of bacterial growth was defined as the concentration of drug at which cell growth was half maximal at twenty-four hours.

The target of test [2] is T2, E. coli dihydrofolate reductase (DHFRec) (Escherichia coli, UniProt P0ABQ4).
T2 construct: made in house
Briefly: ALIS affinity selection-mass spectrometry with E. coli DHFR. Type of test: binding.
Description: as §1

For the compound `COc1ccc([C@@H](C)NC[C@H](O)COc2cc(C(=O)N3CCN(c4cccc(Cl)c4)CC3)on2)cc1` [(S)-29], in test [1], the “affinity for bovine (B. taurus) DHFR (ALIS)” value was “no detectable affinity”. Further, the half-inhibitory concentration (IC50) in the test on E. coli BL21(DE3) was 56 µM and 29 µg/mL. Besides, in test [2] (E. coli enzyme, FIG. 9), the “affinity for DHFRec (ALIS)” value is reported as “selectively binds to the E. coli enzyme”. For the same compound, the “specificity for E. coli DHFR over bovine DHFR” value in test [2] (pathogen vs. host DHFR, FIG. 9) was “exhibits specificity for E. coli DHFR over bovine (B. taurus) DHFR”.

As to `COc1ccc([C@@H](C)NCC(O)COc2cc(C(=O)N3CCN(c4cccc(Cl)c4)CC3)on2)cc1` (some centres unmarked) [Core 29], the “ligand identified by affinity selection LC-MS-MS” value in test [2] (sublibrary from Core 6 with building blocks 15 and 21) is “matched that assigned to regioisomer 29”.
